One block for each compound: values may come before it.
Tests used:
[1] = target: N-terminal nucleotide binding pocket of Hsp90 (Saccharomyces cerevisiae, UniProt P02829); conditions: Prodromou et al. (1997); read-out: Kd of ATP for Hsp90; cited from earlier work
[2] = target: T1, GRP94 (Sus scrofa, UniProt Q29092); assay: Tryptophan fluorescence (ligand-induced conformational change); conditions: 50 μM NECA, 50 μM geldanamycin, 2.5 mM ATP or 2.5 mM ADP, 1 hour at 37° C.
[3] = system: BiP; assay: [32P]ATP binding assay (nitrocellulose filtration); design: species or system porcine; conditions: 50 μM [32P]ATP, 1 hour on ice
Protocol: (§1) BiP was purified by the following procedure. A lumenal protein fraction obtained from porcine pancreas rough microsomes was cycled overnight through a 1 ml ADP-agarose and a 1 ml ATP-agarose (Sigma Chemical Co. of St. Louis, Mo.) column coupled in series. […] The BiP containing fractions were identified by SDS-PAGE, and dialyzed against 2×4 L of buffer A (110 mM KOAc, 20 mM NaCl, 25 mM K-Hepes, pH 7.2, 2 mM Mg(OAc)2 0.1 mM CaCl2). The protein sample was then applied to a SUPERDEX® 26/60 column (Amersham Pharmacia Biotech of Piscataway, N.J.) equilibrated in buffer A, and the BiP containing fractions, again identified by SDS-PAGE, were pooled and concentrated by centrifugal ultrafiltration (CENTRICON-30®; Amicon of Beverly, Mass.).
(§2) ATP Binding Assay. Six μg of GRP94, BiP, and Hsp90 was incubated with 50 μM yZ[^32P] ATP (1000 μCi/μmol) (Amersham Pharmacia Biotech of Piscataway, N.J.) in buffer B on ice for 1 hour. Nitrocellulose filters (BA85) (Schleicher & Schuell of Keene, N.H.) were individually wet in buffer B before use, and bound versus free [^32P]-ATP was separated by vacuum filtration. Filters were washed with 3×2 mL of ice cold buffer B, placed in 5 mL of scintillation fluid, vortexed, and counted.

[4] = target: T1, GRP94; assay: [32P]ATP binding assay (nitrocellulose filtration); design: GRP94 was purified from porcine pancreas rough microsomes; from tissue; host or cells: porcine pancreas rough microsomes; species or system porcine; conditions: 50 μM [32P]ATP, 1 hour on ice
Protocol: as §2

[5] = target: T1, GRP94; assay: [3H]-NECA competitive displacement assay; type: binding, porcine; design: GRP94 was purified from porcine pancreas rough microsomes; from tissue; host or cells: porcine pancreas rough microsomes; conditions: for effect of excess Mg2+ on binding to GRP94: 10 mM Mg(OAc)2 vs nominal endogenous magnesium
[6] = system: Hsp90; assay: [32P]ATP binding assay (nitrocellulose filtration); design: species or system rat; conditions: 50 μM [32P]ATP, 1 hour on ice
Protocol: Hsp90 was purified from rat liver cytosol as follows. Cytosol was adjusted to 30% ammonium sulfate and stirred for 60 min on ice. The solution was centrifuged at 20,000×g in a Sorvall SS34 rotor for 15 minutes and the supernatant collected and filtered through a 0.22 μm filter. The filtered supernatant was supplemented with protease inhibitors (1 μg/ml pepstatin, 1 μg/ml leupeptin, 20 μg/ml SBTI, and 0.5 mM PMSF) and loaded onto a phenyl-SUPEROSE™ HR10/10 column (Amersham Pharmacia Biotech of Piscataway, N.J.). After washing, the bound proteins were eluted with a gradient of 30–0% saturated ammonium sulfate in 10 mM Tris/HCl, pH 7.5, 1 mM EGTA, 0.5 mM DTT and the Hsp90 containing fractions were identified by SDS-PAGE. The Hsp90 containing fractions were then pooled and dialyzed 2×3 hr against 2 L of low salt buffer (10 mM NaCl, 25 mM Tris, pH 7.8). The dialyzed sample was then filtered through a 0.22 μm filter, and injected onto a MONO-Q™ HR 10/10 column (Amersham Pharmacia Biotech of Piscataway, N.J.) equilibrated in low salt buffer. The column was eluted with a gradient of 10 mM–750 mM NaCl in 25 mM Tris, pH 7.8. The Hsp90-containing fractions were identified by SDS-PAGE and pooled.
ATP Binding Assay. Six μg of GRP94, BiP, and Hsp90 was incubated with 50 μM yZ[^32P] […] Filters were washed with 3×2 mL of ice cold buffer B, placed in 5 mL of scintillation fluid, vortexed, and counted.

[7] = target: T1, GRP94; assay: Isothermal titration calorimetry; type: binding, porcine; design: GRP94 was purified from porcine pancreas rough microsomes; from tissue; host or cells: porcine pancreas rough microsomes; conditions: 5 μM GRP94, 152 μM NECA stock, 25° C.
[8] = target: T1, GRP94; assay: [3H]-NECA binding assay (vacuum filtration); design: GRP94 was purified from porcine pancreas rough microsomes; from tissue; host or cells: porcine pancreas rough microsomes; species or system porcine
[9] = target: T1, GRP94; assay: GRP94 autophosphorylation assay; type: biochemical, porcine; design: GRP94 was purified from porcine pancreas rough microsomes; from tissue; host or cells: porcine pancreas rough microsomes; conditions: 180 μM NECA or 180 μM radicicol in 3.6% DMSO, 5 μg/ml heparin, 5 mM GTP; 1 hour 37° C.
Protocol: (§3) Phosphorylation Assays. […] For the casein kinase assay, 1 unit of casein kinase 11 was incubated as described above, with the addition of 4 μM casein. […] The 25 μl reaction mixtures were incubated at 37° C. for 1 hour and quenched by addition of 10% trichloroacetic acid. Samples were analyzed by 10% SDS-PAGE gels and the phosphorylated species were quantitated using a Fuji MACBAS1000™ phosphorimaging system (Fuji Medical Systems of Stamford, Conn.).

[10] = system: BiP; assay: [3H]-NECA binding assay (vacuum filtration); design: species or system porcine; conditions: 20 nM [3H]-NECA, 60 min on ice
Protocol: as §1
[^3H]-NECA Binding Assay.
In similar experiments, [^3H]-NECA binding to Hsp90 was evaluated in the presence of molybdate and NP-40, which are known to stabilize the Hsp90 conformation associated with ATP binding, as described by Sullivan et al. (1997).

[11] = target: casein kinase II (Homo sapiens, UniProt P68400); assay: Casein kinase II assay with casein; type: biochemical; conditions: 180 μM NECA or 180 μM radicicol in 3.6% DMSO, 5 μg/ml heparin, 5 mM GTP; 4 μM casein
Chain of casein kinase II (P68400 whole entry): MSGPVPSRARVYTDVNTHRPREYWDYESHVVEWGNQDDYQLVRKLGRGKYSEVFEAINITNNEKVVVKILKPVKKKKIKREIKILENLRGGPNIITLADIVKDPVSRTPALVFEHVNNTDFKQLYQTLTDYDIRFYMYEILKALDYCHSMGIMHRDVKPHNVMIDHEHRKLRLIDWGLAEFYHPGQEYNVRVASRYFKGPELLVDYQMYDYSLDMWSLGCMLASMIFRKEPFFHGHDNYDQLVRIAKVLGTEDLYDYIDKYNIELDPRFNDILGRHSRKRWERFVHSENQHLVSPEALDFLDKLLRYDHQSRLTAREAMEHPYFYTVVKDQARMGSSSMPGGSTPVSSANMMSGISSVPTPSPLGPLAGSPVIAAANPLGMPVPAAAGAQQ
Chain of casein kinase II (P67870 whole entry partner): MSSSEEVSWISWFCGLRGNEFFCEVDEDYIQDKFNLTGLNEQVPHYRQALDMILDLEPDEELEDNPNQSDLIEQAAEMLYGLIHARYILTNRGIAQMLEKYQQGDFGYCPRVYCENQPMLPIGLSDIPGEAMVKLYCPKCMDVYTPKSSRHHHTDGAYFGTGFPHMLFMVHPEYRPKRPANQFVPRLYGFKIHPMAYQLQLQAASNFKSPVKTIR
Protocol: as §3

T1 sequence (Q29092 22-804): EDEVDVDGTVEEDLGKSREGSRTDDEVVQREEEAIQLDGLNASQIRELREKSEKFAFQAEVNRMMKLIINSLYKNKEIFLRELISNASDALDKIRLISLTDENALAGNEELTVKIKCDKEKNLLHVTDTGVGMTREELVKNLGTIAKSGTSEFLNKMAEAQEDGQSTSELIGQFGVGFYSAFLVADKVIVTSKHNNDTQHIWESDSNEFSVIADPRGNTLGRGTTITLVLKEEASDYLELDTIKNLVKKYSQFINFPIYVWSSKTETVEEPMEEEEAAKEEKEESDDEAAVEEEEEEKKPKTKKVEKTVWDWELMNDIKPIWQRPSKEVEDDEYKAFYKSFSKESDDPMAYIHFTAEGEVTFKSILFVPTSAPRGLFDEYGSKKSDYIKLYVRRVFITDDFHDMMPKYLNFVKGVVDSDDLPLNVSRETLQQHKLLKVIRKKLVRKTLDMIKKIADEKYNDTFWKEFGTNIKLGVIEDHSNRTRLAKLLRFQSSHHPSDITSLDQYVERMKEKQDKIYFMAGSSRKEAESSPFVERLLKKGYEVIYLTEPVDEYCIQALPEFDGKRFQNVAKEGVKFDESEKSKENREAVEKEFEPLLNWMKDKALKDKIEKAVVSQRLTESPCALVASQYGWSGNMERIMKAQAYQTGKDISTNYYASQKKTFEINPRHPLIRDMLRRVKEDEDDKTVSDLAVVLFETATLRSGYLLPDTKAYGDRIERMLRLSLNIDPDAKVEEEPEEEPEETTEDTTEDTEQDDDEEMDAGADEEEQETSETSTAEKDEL
Chain of N-terminal nucleotide binding pocket of Hsp90 (P02829 whole entry): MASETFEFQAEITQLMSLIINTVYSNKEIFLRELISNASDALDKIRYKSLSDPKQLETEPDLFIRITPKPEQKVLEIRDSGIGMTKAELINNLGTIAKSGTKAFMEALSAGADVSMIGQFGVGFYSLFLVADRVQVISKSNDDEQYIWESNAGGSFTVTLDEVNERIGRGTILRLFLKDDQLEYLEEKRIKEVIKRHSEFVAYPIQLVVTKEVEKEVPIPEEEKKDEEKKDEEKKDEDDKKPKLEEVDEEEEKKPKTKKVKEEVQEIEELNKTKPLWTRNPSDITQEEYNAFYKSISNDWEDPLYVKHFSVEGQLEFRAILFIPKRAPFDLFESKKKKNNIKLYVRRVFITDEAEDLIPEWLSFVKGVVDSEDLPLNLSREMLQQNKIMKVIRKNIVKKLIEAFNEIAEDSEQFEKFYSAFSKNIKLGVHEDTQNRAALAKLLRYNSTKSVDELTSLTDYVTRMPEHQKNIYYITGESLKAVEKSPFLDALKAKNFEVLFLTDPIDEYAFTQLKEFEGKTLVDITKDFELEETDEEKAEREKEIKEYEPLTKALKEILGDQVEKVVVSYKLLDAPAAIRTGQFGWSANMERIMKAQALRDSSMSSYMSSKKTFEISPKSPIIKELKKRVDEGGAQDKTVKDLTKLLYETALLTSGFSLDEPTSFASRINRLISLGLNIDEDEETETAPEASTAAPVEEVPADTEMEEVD

ATP binding to GRP94 [4]: no ATP binding was observed
molar excess of competitor required for 50% inhibition of [3H]-NECA binding ([5]; 20 nM [3H]-NECA): ~1000 -fold molar excess
competition with [3H]-NECA for binding to GRP94 (adenosine ligands) ([5]; 20 nM [3H]-NECA, nominal (80 μM) Mg2+): effectively competed
effect of excess Mg2+ on binding to GRP94 [5]: markedly stimulated
extent of competition of NECA binding to GRP94 ([5]; FIGS. 10A–10C): wholly competed
nucleoside base specificity: binding by [3H]-NECA competitive displacement ([5]; competitors all at 50 μM, 20 nM [3H]-NECA): could bind
relative affinities for GRP94 in presence of Mg2+ ([5]; excess Mg2+): nearly identical relative affinities
efficacy of competing NECA binding, ATP relative to ADP ([5]; nominal Mg2+): eight-fold higher efficacy than ADP
ATP binding to Hsp90 [6]: no ATP binding was observed
Structure (SMILES): Nc1ncnc2c1ncn2[C@@H]1O[C@H](COP(=O)(O)OP(=O)(O)OP(=O)(O)O)[C@@H](O)[C@H]1O [ATP]
Kd [1]: 132 µM
change of GRP94 tryptophan fluorescence [2]: the tryptophan fluorescence was decreased
ATP binding to BiP [3]: displayed the expected ATP binding activity

Structure (SMILES): CCNC(=O)[C@H]1O[C@@H](n2cnc3c(N)ncnc32)[C@H](O)[C@@H]1O [NECA, N-ethylcarboxamidoadenosine]
binding stoichiometry of NECA by isothermal titration calorimetry [7]: 1.1 mol NECA/mol GRP94 dimer
[3H]-NECA binding activity of GRP94 ([8]; 20 nM [3H]-NECA, 60 min on ice): readily detectable
stoichiometry of NECA bound to GRP94 at saturation (summary) ([8]; ligand binding studies and isothermal titration calorimetry): 1 mol NECA:mol GRP94 dimer
Hill plot slope of [3H]-NECA binding ([8]; saturation binding): 1.2
binding stoichiometry of [3H]-NECA ([8]; saturation binding): 0.5 mol [^3H]-NECA/mol GRP94 monomer
maximal binding stoichiometry of NECA ([8]; saturation curve, FIG. 9B): 1 molecule of NECA per molecule of GRP94 dimer
effect on GRP94 autophosphorylation activity [9]: does not significantly inhibit GRP94 autophosphorylation activity
[3H]-NECA binding to BiP [10]: not observed
change of GRP94 tryptophan fluorescence [2]: increased the tryptophan fluorescence
effect on casein kinase II activity [11]: neither NECA nor radicicol, both of which bind to the N-terminal nucleotide binding domain of GRP94, significantly inhibit GRP94 derived or casein kinase II activity
effect of excess Mg2+ on binding to GRP94 [5]: without effect

Source: patent US7235649B2, “Isolated GRP94 ligand binding domain polypeptide and nucleic acid encoding same, and screening methods employing same” (Duke University, priority 2000, dated 2007)
